Data from patent publication US20110105324A1, “Herbicidal Compounds Based on N-Azinyl-N-Phenylsulfonylureas” (BAYER CROPSCIENCE AG, priority 2008, published 2011).

Key:
[1] = system: Lolium multiflorum; assay: Pre-emergence herbicidal activity, greenhouse pot test; type: in vivo; conditions: 80 g/ha, scored visually after approx. 3 weeks, 100% = plants have died, 0% = like control
Text: (§1) Seeds of monocotyledonous or dicotyledonous weed plants or crop plants are placed in sandy loam in wood fiber pots and covered with soil. The compounds according to the invention, which are formulated as wettable powders (WP), are then applied to the surface of the soil cover in the form of an aqueous suspension or emulsion with a water application rate of 600 l/ha (converted), with addition of 0.2% wetting agent.
(§2) After the treatment, the pots are placed in a greenhouse and maintained under good growth conditions for the test plants. After approximately 3 weeks, the activity of the preparations is scored visually in comparison with untreated controls (herbicidal activity in percent (%): 100% activity=the plants have died, 0% activity=like control plants).

[2] = system: Alopecurus myosuroides; assay: as above; type: in vivo; conditions: 80 g/ha, scored visually after approx. 3 weeks, 100% = plants have died, 0% = like control
Text: as §1, §2

[3] = system: Amaranthus retroflexus; assay: Post-emergence herbicidal activity, greenhouse pot test; type: in vivo; conditions: one-leaf stage, 80 g/ha, scored visually after approx. 3 weeks, 100% = plants have died, 0% = like control
Experimental: (§3) Seeds of monocotyledonous or dicotyledonous weed plants or crop plants are placed in sandy loam in wood fiber pots, covered with soil and grown in a greenhouse under good growth conditions. 2 to 3 weeks after sowing, the test plants are treated in the one-leaf stage. The compounds according to the invention, which are formulated as wettable powders (WP), are then sprayed onto the green plant parts in the form of an aqueous suspension or emulsion with a water application rate of 600 l/ha (converted) with addition of 0.2% of wetting agent. After the test plants have been left to stand in the greenhouse for approximately 3 weeks under optimal growth conditions, the activity of the preparation is scored visually in comparison with untreated controls (herbicidal activity in percent (%): 100% activity=the plants have died, 0% activity=like control plants).

[4] = system: Cyperus esculentus; assay: as above; type: in vivo; conditions: one-leaf stage, 80 g/ha, scored visually after approx. 3 weeks, 100% = plants have died, 0% = like control
Experimental: as §3

[5] = system: Matricaria inodora; assay: as above; type: in vivo; conditions: one-leaf stage, 80 g/ha, scored visually after approx. 3 weeks, 100% = plants have died, 0% = like control
Experimental: as §3

[6] = system: Polygonum convolvulus; assay: as above; type: in vivo; conditions: one-leaf stage, 80 g/ha, scored visually after approx. 3 weeks, 100% = plants have died, 0% = like control
Experimental: as §3

[7] = system: Abutilon theophrasti; assay: as above; type: in vivo; conditions: one-leaf stage, 80 g/ha, scored visually after approx. 3 weeks, 100% = plants have died, 0% = like control
Experimental: as §3

[8] = system: Alopecurus myosuroides; assay: as above; type: in vivo; conditions: one-leaf stage, 80 g/ha, scored visually after approx. 3 weeks, 100% = plants have died, 0% = like control
Experimental: as §3

[9] = system: Echinochloa crus-galli; assay: as above; type: in vivo; conditions: one-leaf stage, 80 g/ha, scored visually after approx. 3 weeks, 100% = plants have died, 0% = like control
Experimental: as §3

[10] = system: Viola tricolor; assay: Pre-emergence herbicidal activity, greenhouse pot test; type: in vivo; conditions: 80 g/ha, scored visually after approx. 3 weeks, 100% = plants have died, 0% = like control
Text: as §1, §2

[11] = system: Cyperus esculentus; assay: as above; type: in vivo; conditions: 80 g/ha, scored visually after approx. 3 weeks, 100% = plants have died, 0% = like control
Text: as §1, §2

[12] = system: Matricaria inodora; assay: as above; type: in vivo; conditions: 80 g/ha, scored visually after approx. 3 weeks, 100% = plants have died, 0% = like control
Text: as §1, §2

[13] = system: Veronica persica; assay: as above; type: in vivo; conditions: 80 g/ha, scored visually after approx. 3 weeks, 100% = plants have died, 0% = like control
Text: as §1, §2

[14] = system: Stellaria media; assay: as above; type: in vivo; conditions: 80 g/ha, scored visually after approx. 3 weeks, 100% = plants have died, 0% = like control
Text: as §1, §2

[15] = system: Pharbitis purpurea; assay: Post-emergence herbicidal activity, greenhouse pot test; type: in vivo, Pharbitis (Ipomoea) purpurea; conditions: one-leaf stage, 80 g/ha, scored visually after approx. 3 weeks, 100% = plants have died, 0% = like control
Experimental: as §3

[16] = system: Viola tricolor; assay: as above; type: in vivo; conditions: one-leaf stage, 80 g/ha, scored visually after approx. 3 weeks, 100% = plants have died, 0% = like control
Experimental: as §3

[17] = system: Pharbitis purpurea; assay: Pre-emergence herbicidal activity, greenhouse pot test; type: in vivo, Pharbitis/Ipomoea purpurea; conditions: 80 g/ha, scored visually after approx. 3 weeks, 100% = plants have died, 0% = like control
Text: as §1, §2

| SMILES | herbicidal activity LOLMU [1] [%] | herbicidal activity ALOMY [2] [%] | herbicidal activity AMARE [3] [%] | herbicidal activity CYPES [4] [%] | herbicidal activity MATIN [5] [%] | herbicidal activity POLCO [6] [%] | herbicidal activity ABUTH [7] [%] | herbicidal activity ALOMY [8] [%] | herbicidal activity ECHCG [9] [%] | herbicidal activity VIOTR [10] [%] | herbicidal activity CYPES [11] [%] | herbicidal activity MATIN [12] [%] | herbicidal activity VERPE [13] [%] | herbicidal activity STEME [14] [%] | herbicidal activity PHBPU [15] [%] | herbicidal activity VIOTR [16] [%] | herbicidal activity PHBPU [17] [%] |
| --- | --- | --- | --- | --- | --- | --- | --- | --- | --- | --- | --- | --- | --- | --- | --- | --- | --- |
| Cc1cc(C)nc(NC(=O)NS(=O)(=O)c2ccccc2OC(C)C(F)(F)F)n1 (stereo not shown) [Compound I-1, N-[(4,6-Dimethylpyrimidin-2-yl)carbamoyl]-2-(2,2,2-trifluoro-1-methylethoxy)-benzenesulfonamide] | 80 | 80 | 80 | 80 | 80 | 90 | 90 | 90 | 80 |  |  |  |  |  |  |  |  |
| COc1cc(C)nc(NC(=O)NS(=O)(=O)c2ccccc2OC(C)C(F)(F)F)n1 (stereo not shown) [Compound I-2] | 90 | 90 |  | 80 | 80 | 90 | 90 | 90 | 80 | 80 | 100 | 80 | 80 | 80 | 80 | 90 | 80 |
| COc1cc(Cl)nc(NC(=O)NS(=O)(=O)c2ccccc2OC(C)C(F)(F)F)n1 (stereo not shown) [Compound I-3] | 80 | 80 |  | 80 | 90 | 80 | 90 | 80 |  |  | 100 | 80 | 80 |  | 90 | 80 | 80 |
| COc1cc(OC)nc(NC(=O)NS(=O)(=O)c2ccccc2OC(C)C(F)(F)F)n1 (stereo not shown) [Compound I-4] | 80 | 80 |  | 80 | 90 | 80 | 100 | 90 | 80 | 80 | 90 | 80 | 80 |  | 80 | 90 | 80 |
| COc1nc(C)nc(NC(=O)NS(=O)(=O)c2ccccc2OC(C)C(F)(F)F)n1 (stereo not shown) [Compound I-5, N-[(4-Methoxy-6-methyl-1,3,5-triazin-2-yl)carbamoyl]-2-(2,2,2-trifluoro-1-methylethoxy)benzenesulfonamide] |  | 90 | 100 |  | 90 | 90 | 90 | 90 |  | 80 |  | 80 | 90 | 80 | 90 | 90 | 80 |
| COc1nc(NC(=O)NS(=O)(=O)c2ccccc2OC(C)C(F)(F)F)nc(OC)n1 (stereo not shown) [Compound I-6] |  | 80 | 80 |  | 90 | 90 | 90 |  |  | 80 | 100 | 80 | 80 | 80 | 90 | 90 | 80 |
